Values joined by “and” are separate entries in the source; they are usually repeats but may differ in a detail not shown here. Equal entries are not always repeated. Inconclusive results and toxic doses are left out. Rule as the data show it: active = T/C of 150% or more; inactive = T/C below 125%.
Tested on: L1210 leukemia ip in BDF1 mice, survival T/C
Assay: NCI In Vivo Anticancer Drug Screen. Data for tumor model L1210 Leukemia (intraperitoneal) in B6D2F1 (BDF1) mice
Conditions: endpoint: mean survival time, higher = longer survival
Summary of the method: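 Mice bearing the transplanted tumor received compound or vehicle. Survival of the treated group was divided by that of the vehicle-treated control group to give the ratio.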

[1] = dose: 50.0 mg/kg/injection, schedule: Q01DX009 (ip), vehicle: saline with Tween-80
[2] = dose: 100.0 mg/kg/injection, schedule: Q01DX001 (ip), vehicle: saline with Tween-80
[3] = dose: 100.0 mg/kg/injection, schedule: Q01DX009 (ip), vehicle: saline with Tween-80
[4] = dose: 100.0 mg/kg/injection, schedule: Q04DX002 (ip), vehicle: saline with Tween-80
[5] = dose: 200.0 mg/kg/injection, schedule: Q01DX001 (ip), vehicle: saline with Tween-80
[6] = dose: 200.0 mg/kg/injection, schedule: Q01DX009 (ip), vehicle: saline with Tween-80
[7] = dose: 200.0 mg/kg/injection, schedule: Q04DX002 (ip), vehicle: saline with Tween-80
[8] = dose: 400.0 mg/kg/injection, schedule: Q01DX001 (ip), vehicle: saline with Tween-80
[9] = dose: 400.0 mg/kg/injection, schedule: Q04DX002 (ip), vehicle: saline with Tween-80
[10] = dose: 400.0 mg/kg/injection, schedule: Q01DX009 (ip), vehicle: saline with Tween-80
[11] = dose: 100.0 mg/kg/injection, schedule: Q01DX009 (ip), vehicle: Klucel (hydroxypropylcellulose) (HPC)
[12] = dose: 200.0 mg/kg/injection, schedule: Q01DX009 (ip), vehicle: Klucel (hydroxypropylcellulose) (HPC)
[13] = dose: 400.0 mg/kg/injection, schedule: Q01DX009 (ip), vehicle: Klucel (hydroxypropylcellulose) (HPC)
[14] = dose: 100.0 mg/kg/injection, schedule: Q01DX001 (ip), vehicle: carboxymethylcellulose (CMC)
[15] = dose: 200.0 mg/kg/injection, schedule: Q01DX001 (ip), vehicle: carboxymethylcellulose (CMC)
[16] = dose: 400.0 mg/kg/injection, schedule: Q01DX001 (ip), vehicle: carboxymethylcellulose (CMC)
[17] = dose: 100.0 mg/kg/injection, schedule: Q04DX003 (ip), vehicle: saline with Tween-80
[18] = dose: 200.0 mg/kg/injection, schedule: Q04DX003 (ip), vehicle: saline with Tween-80
[19] = dose: 400.0 mg/kg/injection, schedule: Q04DX003 (ip), vehicle: saline with Tween-80
[20] = dose: 100.0 mg/kg/injection, schedule: Q04DX003 (ip), vehicle: Klucel (hydroxypropylcellulose) (HPC)
[21] = dose: 100.0 mg/kg/injection, schedule: Q04DX002 (ip), vehicle: Klucel (hydroxypropylcellulose) (HPC)
[22] = dose: 50.0 mg/kg/injection, schedule: Q01DX001 (ip), vehicle: carboxymethylcellulose (CMC)
[23] = dose: 100.0 mg/kg/injection, schedule: Q01DX001 (ip), vehicle: saline
[24] = dose: 200.0 mg/kg/injection, schedule: Q01DX001 (ip), vehicle: saline
[25] = dose: 400.0 mg/kg/injection, schedule: Q01DX001 (ip), vehicle: saline

Measured: T/C

C[S+](C)CCS(=O)(=O)[O-]
inactive: dose: 100.0 mg/kg/injection, schedule: Q04DX002 (ip), vehicle: saline 99 % of control | dose: 200.0 mg/kg/injection, schedule: Q04DX002 (ip), vehicle: saline 96 % of control | dose: 400.0 mg/kg/injection, schedule: Q04DX002 (ip), vehicle: saline 96 % of control

Nc1ncnc2nc(-c3ccc(SCc4ccccc4)cc3)[nH]c12
inactive: [1] 93 % of control and 89 % of control | [2] 91 % of control | [3] 99 % of control and 103 % of control and 104 % of control | [4] 103 % of control | [5] 87 % of control | [6] 96 % of control and 103 % of control and 86 % of control | [7] 97 % of control and 100 % of control | [8] 91 % of control | [9] 94 % of control and 100 % of control

CCOc1ccc(/C=N/NC(=O)c2ccc(O)c(OC)c2)cc1OC
inactive: [3] 103 % of control | [6] 92 % of control | [10] 96 % of control

COc1cc(/C=N\N=C\c2ccc(OC(=O)c3cc(OC)c(OC)c(OC)c3)c(OC)c2)ccc1OC(=O)c1cc(OC)c(OC)c(OC)c1
inactive: [11] 95 % of control | [12] 95 % of control | [13] 102 % of control

COc1ccc(C(C)S(=O)(=O)c2ccc(C)cc2)cc1OC (centres undefined)
inactive: [14] 97 % of control | [15] 97 % of control | [16] 94 % of control

CCOC(COC(=O)c1ccccc1C(=O)O)c1ccccc1 (centres undefined)
inactive: [17] 94 % of control | [18] 97 % of control | [19] 92 % of control

C[N+](C)(C)C1CC2CC1C2 (centres undefined)
inactive: dose: 75.0 mg/kg/injection, schedule: Q01DX001 (ip), vehicle: saline 97 % of control

CN(C)CCN1C(=O)CC(c2ccccc2)Sc2ccccc21 (centres undefined)
inactive: dose: 3.12 mg/kg/injection, schedule: Q01DX009 (ip), vehicle: saline 98 % of control | dose: 6.25 mg/kg/injection, schedule: Q01DX009 (ip), vehicle: saline 118 % of control | dose: 12.5 mg/kg/injection, schedule: Q01DX009 (ip), vehicle: saline 101 % of control | dose: 25.0 mg/kg/injection, schedule: Q01DX009 (ip), vehicle: saline 107 % of control | dose: 25.0 mg/kg/injection, schedule: Q04DX003 (ip), vehicle: saline 102 % of control | dose: 50.0 mg/kg/injection, schedule: Q01DX009 (ip), vehicle: saline 113 % of control | dose: 50.0 mg/kg/injection, schedule: Q04DX003 (ip), vehicle: saline 113 % of control

CCOC(=O)/C(C#N)=C\c1cccs1
inactive: [20] 103 % of control

CCCN(CCC#N)C(=S)Nc1ccc(C)c(C)c1
inactive: [21] 94 % of control | dose: 200.0 mg/kg/injection, schedule: Q04DX002 (ip), vehicle: Klucel (hydroxypropylcellulose) (HPC) 97 % of control | dose: 400.0 mg/kg/injection, schedule: Q04DX002 (ip), vehicle: Klucel (hydroxypropylcellulose) (HPC) 94 % of control

S=P(NCCCCCNP(=S)(N1CC1)N1CC1)(N1CC1)N1CC1
inactive: [14] 91 % of control

O=C1CCC2c3ccccc3-c3cccc1c32 (centres undefined)
inactive: [22] 100 % of control | [14] 91 % of control | [15] 96 % of control | [16] 102 % of control

BrCCC[CH2][Pb]([c]1ccccc1)([c]1ccccc1)[c]1ccccc1
inactive: [22] 102 % of control | [14] 105 % of control | [15] 111 % of control | [16] 100 % of control

CC(=O)OCCCc1ccccc1
inactive: [11] 94 % of control | [20] 98 % of control | [12] 95 % of control | dose: 200.0 mg/kg/injection, schedule: Q04DX003 (ip), vehicle: Klucel (hydroxypropylcellulose) (HPC) 97 % of control | [13] 94 % of control | dose: 400.0 mg/kg/injection, schedule: Q04DX003 (ip), vehicle: Klucel (hydroxypropylcellulose) (HPC) 94 % of control

O=C(Nc1ccc(Cl)c(Cl)c1)Nc1ccc(Oc2ccc(Cl)cc2Cl)cc1S(=O)(=O)O
inactive: dose: 100.0 mg/kg/injection, schedule: Q04DX003 (ip), vehicle: alcohol 100 % of control | dose: 200.0 mg/kg/injection, schedule: Q04DX003 (ip), vehicle: alcohol 103 % of control

CC1CC(C)(C)CC2(C1)OCCCO2 (centres undefined)
inactive: [1] 90 % of control | [3] 102 % of control | [6] 98 % of control

C/C(CC(C)C)=N/O
inactive: [23] 95 % of control | [24] 97 % of control | [25] 92 % of control

CSc1nc(N)c(N=Nc2ccc(S(=O)(=O)Nc3cc(C)nc(C)n3)cc2)c(=O)[nH]1
inactive: [14] 103 % of control | [15] 95 % of control | [16] 97 % of control

O=C(Nc1ccc(S(=O)(=O)F)cc1)OCc1ccc([N+](=O)[O-])cc1
inactive: [2] 105 % of control | [5] 95 % of control | [8] 100 % of control

COc1ccc(CCCNCCCCCCNCCCc2ccc(OC)cc2)cc1
inactive: dose: 25.0 mg/kg/injection, schedule: Q01DX009 (ip), vehicle: Klucel (hydroxypropylcellulose) (HPC) 104 % of control | dose: 50.0 mg/kg/injection, schedule: Q01DX009 (ip), vehicle: Klucel (hydroxypropylcellulose) (HPC) 93 % of control | dose: 50.0 mg/kg/injection, schedule: Q04DX002 (ip), vehicle: Klucel (hydroxypropylcellulose) (HPC) 96 % of control | [11] 86 % of control | [21] 96 % of control

Cc1cc(Br)c2ccccc2c1N(CC(=O)O)S(=O)(=O)c1ccccc1
inactive: dose: 100.0 mg/kg/injection, schedule: Q01DX001 (ip), vehicle: saline sonified 97 % of control | [3] 91 % of control | dose: 200.0 mg/kg/injection, schedule: Q01DX001 (ip), vehicle: saline sonified 100 % of control | [6] 91 % of control | dose: 400.0 mg/kg/injection, schedule: Q01DX001 (ip), vehicle: saline sonified 97 % of control | [10] 97 % of control

O=C(Cl)COc1c(Cl)cc(Cl)cc1Cl
inactive: [4] 107 % of control | [7] 107 % of control | [9] 103 % of control

COC1CC(OS(=O)(=O)c2ccc(C)cc2)C(O)C(C)O1 (centres undefined)
inactive: [23] 103 % of control | [3] 96 % of control | [17] 100 % of control | [24] 94 % of control | [6] 94 % of control | [18] 100 % of control | [25] 100 % of control | [10] 96 % of control | [19] 97 % of control

O=C(O)c1ccccc1N1C(=O)c2ccccc2C1=O
inactive: [23] 91 % of control | [24] 96 % of control | [25] 94 % of control

CCOC(=O)c1ccc(NC(=O)Nc2ccccc2Cl)cc1
inactive: [3] 93 % of control | [17] 91 % of control | [6] 87 % of control | [18] 93 % of control | [10] 92 % of control | [19] 94 % of control

C=C1C[C@]23C[C@H](O)[C@]4(O)[C@@]5(C)C[C@H](O)C[C@]46C(C2[C@@H]1[C@@H](OC(=O)/C(C)=C/C)[C@@H](OC(=O)/C(C)=C/C)[C@H]36)N(C)C5 (some centres undefined)
inactive: [22] 95 % of control | [14] 106 % of control | [15] 106 % of control | [16] 114 % of control

CCC(=O)C(CC)c1cccc(OC)c1 (centres undefined)
inactive: [3] 100 % of control | [17] 100 % of control | [6] 94 % of control | [18] 97 % of control | [10] 114 % of control | [19] 97 % of control

O=C1OCc2cccc3cccc1c23
inactive: [17] 115 % of control | [18] 104 % of control

Nc1ccc(O)c2ccccc12
inactive: dose: 6.25 mg/kg/injection, schedule: Q04DX003 (ip), vehicle: other 97 % of control

Nc1cccc2cc3ccccc3nc12
inactive: dose: 25.0 mg/kg/injection, schedule: Q04DX003 (ip), vehicle: Klucel (hydroxypropylcellulose) (HPC) 102 % of control | dose: 50.0 mg/kg/injection, schedule: Q04DX003 (ip), vehicle: Klucel (hydroxypropylcellulose) (HPC) 92 % of control | [20] 86 % of control

COc1ccc(Cl)c(NC(=O)Nc2cc(Cl)ccc2C)c1
inactive: [3] 94 % of control and 95 % of control | [4] 98 % of control and 91 % of control | [6] 90 % of control | [7] 95 % of control and 91 % of control | [10] 93 % of control | [9] 87 % of control and 90 % of control

From PubChem BioAssay AID248 (DTP/NCI, 2004)
